The results in this text go back to patent US20070088031A1, “Novel chemical compounds” (priority 2003, published 2007).

Structures are written as SMILES.

GSK-3β, sequence (P49841 whole entry, species assumed): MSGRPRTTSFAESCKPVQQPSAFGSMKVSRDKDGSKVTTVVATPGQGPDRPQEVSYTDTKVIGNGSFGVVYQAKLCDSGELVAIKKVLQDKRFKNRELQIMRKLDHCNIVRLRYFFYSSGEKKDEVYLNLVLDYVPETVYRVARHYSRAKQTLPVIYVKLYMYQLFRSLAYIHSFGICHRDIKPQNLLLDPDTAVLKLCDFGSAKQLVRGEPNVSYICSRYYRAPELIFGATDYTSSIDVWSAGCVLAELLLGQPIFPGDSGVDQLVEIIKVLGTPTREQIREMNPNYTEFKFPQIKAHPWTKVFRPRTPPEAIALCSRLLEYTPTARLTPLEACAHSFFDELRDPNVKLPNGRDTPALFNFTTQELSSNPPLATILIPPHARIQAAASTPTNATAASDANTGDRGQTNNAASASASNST

The test concerns the target GSK-3β (Homo sapiens, UniProt P49841). The experiment in a line: GSK-3 kinase scintillation proximity assay (SPA) with biotinylated glycogen synthase peptide. Conditions: 20 nM kinase, 2.5 uM ATP, 40 minutes at room temperature; pIC50 = -log IC50 in Molar; read-out: GSK-3 inhibition. The class given is biochemical. An excerpt: The phosphorylated biotinylated peptide is then captured onto streptavidin coated scintillation proximity assay (SPA) beads from Amersham Technology, where the signal from the ^33P is amplified via the scintillant contained in the beads.
GSK-3β, is commercially available or may be cloned and expressed in E coli using standard techniques to produce soluble, active protein. The production of active protein involves purification in two steps using Metal Chelate and Ion Exchange Chromatography. Protein eluting from Ion Exchange provides >90% pure product that may then be concentrated for use in high throughput screening.
The kinase was assayed at a concentration of 20 nM final in 100 mM HEPES, pH 7.2 containing 10 mM magnesium chloride, 0.1 mg/mL bovine serum albumin, 1 mM dithiothreitol, 0.3 mg/mL heparin, 2.8 uM peptide substrate, 2.5 uM ATP, and 0.2 uCi/well γ^33P]-ATP. After 40 minutes incubation at room temperature, the reaction was stopped by addition of 100 mM EDTA and […] in 100 mM HEPES, pH7.2 followed by an additional solution of diluted Streptavidin coated SPA beads in PBS, pH 7.2 to give a final concentration of 0.25 mg of beads per assay well in a 96-well microtiter plate.
10 mM stock solutions of the compounds of the invention in 100% DMSO are generated as a first step in the screening process. The second step involves the creation of dose response plates where these compounds are diluted 10-fold in 100% DMSO to 1 mM concentrations and subsequently serially diluted 3-fold in 100% DMSO across the plate by automated liquid handling such that the final top concentration of inhibitor is 0.033 mM in the 30 uL kinase assay. The third step involves the creation of the assay plates. This is achieved by transferring 1 uL of the compounds to assay plates by automated liquid handling. The fourth step is to perform the assay as described and count the resulting plates in the Packard TopCount NXT microplate scintillation and luminescence counter. The final step is data acquisition and analysis where IC50 values are generated for each compound by normalizing curve data to the equation 100*(U1−C2)/(C1−C2) (where U1 is the cpm value, C2 is the background, and C1 is the maximum number of counts), then fitting the normalized data to the equation y=Vmax*(1−(x/(K+x))). The IC50 values were converted to pIC50 values, i.e., -log IC50 in Molar concentration.
(In general: Scintillation proximity formats need no separation of bound from free tracer.)
Take `COc1ccc(-c2cc3c(NC(=O)CCSC)ncnc3o2)cc1` [Example 4, N-[6-(4-Methoxy-phenyl)-furo[2,3-d]pyrimidin-4-yl]-3-methylsulfanyl-propionamide]: the IC50 lay in the range of 0.1 to 1 µM.
For `O=C(Nc1ncnc2oc(-c3cccnc3)cc12)C1CCCC1` [Example 20, Cyclopentanecarboxylic acid (6-pyridin-3-yl-furo[2,3-d]pyrimidin-4-yl)-amide], the IC50 was < 0.01 µM.
On to `COc1ccc(-c2cc3c(NC(=O)C4CCCC4)ncnc3o2)cc1` [Example 3, Cyclopentanecarboxylic acid [6-(4-methoxy-phenyl)-furo[2,3-d]pyrimidin-4-yl]-amide], for which the IC50 was 0.01 to 0.1 µM.
As to `COc1ccc(-c2cc3c(NC(=O)C4CCCCC4)ncnc3o2)cc1` [Example 6, Cyclohexanecarboxylic acid [6-(4-methoxy-phenyl)-furo[2,3-d]pyrimidin-4-yl]-amide], the IC50 was > 1 µM.
